# According to patent US8138175B2, “Heterocyclyl compounds” (Hoffmann-La Roche Inc., priority 2008, dated 2012):
# Target: T1, human chemokine receptor 2 isoform B (Homo sapiens, UniProt P41597)
# T1 construct: host or cells: CHOK1-CCR2B-A5 (CHO-K1) cells
# T1 sequence (P41597 1-360 isoform P41597-2): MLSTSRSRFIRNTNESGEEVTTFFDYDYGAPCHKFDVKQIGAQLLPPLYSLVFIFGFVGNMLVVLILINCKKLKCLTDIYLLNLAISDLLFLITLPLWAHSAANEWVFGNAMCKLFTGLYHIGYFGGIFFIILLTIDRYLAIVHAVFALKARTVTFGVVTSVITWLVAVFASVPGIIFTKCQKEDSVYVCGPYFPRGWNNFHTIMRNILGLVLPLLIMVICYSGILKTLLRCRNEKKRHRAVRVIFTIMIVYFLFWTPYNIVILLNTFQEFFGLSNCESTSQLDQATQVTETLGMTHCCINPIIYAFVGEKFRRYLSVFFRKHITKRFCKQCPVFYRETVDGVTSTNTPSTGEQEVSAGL
# Assay: Calcium mobilization assay
# Format: cell-based
# Details: Ca mobilization assay for CCR2; CHOK1-CCR2B-A5 cells; antagonist activity against 20 nM MCP-1; FLIPR, Fluo-4
# Procedure: Calcium Mobilization Assay
# CHOK1-CCR2B-A5 cells (from Euroscreen) stably overexpressing the human chemokine receptor 2 isoform B were cultured in Nutrient Hams F12 medium supplemented with 5% FBS, 100 U/ml penicillin, 100 μg/ml streptomycin, 400 μg/ml G418 and 5 μg/ml puromycin.
# For the assay cells were grown overnight in 384-well black clear flat bottom polystyrene plates (Costar) at 37° C. at 5% CO2. After washing with DMEM, 20 mM Hepes, 2.5 mM probenecid, 0.1% BSA (DMEM assay buffer) cells were loaded with 4 μM Fluo-4 in the same DMEM assay buffer for 2 hours at 30° C. Excess dye was removed and cells were washed with DMEM assay buffer. 384-well compound plates were prepared with DMEM assay buffer/0.5% dimethyl sulfoxide with or without various concentrations of test compounds. Usually compounds were tested for agonist and antagonist activity.
# Test compounds were added to the assay plate and agonist activity was monitored as fluorescence for 80 seconds with a FLIPR (488 nm excitation; 510-570 nm emission; Molecular Devices). After 20-30 min. of incubation at 30° C., 20 nM MCP-1 (R&D; Roche) was added and fluorescence was monitored again for 80 seconds. Increases in intracellular calcium are reported as maximum fluorescence after agonist exposure minus basal fluorescence before exposure. Antagonist activity is indicated as inhibitor concentration required for 50% inhibition of specific calcium increases.
row,IC50,SMILES
1,0.01 µM,"COC[C@H](CCN1CCC2(CC2)[C@H](O)C1)N1CCN(c2cccc(C(F)(F)F)c2)CCC1=O [Example 23, 4-[(S)-3-((S)-4-Hydroxy-6-aza-spiro[2.5]oct-6-yl)-1-methoxymethyl-propyl]-1-(3-trifluoromethyl-phenyl)-[4]diazepan-5-one]"
2,0.09 µM,"COC[C@H](CCN1C[C@@H](C)C[C@H](O)C1)N1CCN(c2cccc(C(F)(F)F)c2)CCC1=O [Example 24, 4-[(S)-3-((3S,5S)-3-Hydroxy-5-methyl-piperidin-1-yl)-1-methoxymethyl-propyl]-1-(3-trifluoromethyl-phenyl)-[1,4]diazepan-5-one]"
3,0.07 µM,"O=C1CCN(c2cccc(C(F)(F)F)c2)CCN1C(CO)CCCN1CCC2(CC2)[C@H](O)C1 (stereo partly drawn) [Example 27, 4-[(R,S)-4-((S)-4-Hydroxy-6-aza-spiro[2.5]oct-6-yl)-1-hydroxymethyl-butyl]-1-(3-trifluoromethyl-phenyl)-[1,4]diazepan-5-one]"
4,0.4 µM,"COCC(CCCN1CCC2(CC2)[C@H](O)C1)N1CCN(c2cccc(C(F)(F)F)c2)CCC1=O (stereo partly drawn) [Example 28, 4-[(R,S)-4-((S)-4-Hydroxy-6-aza-spiro[2.5]oct-6-yl)-t-methoxymethyl-butyl]-1-(3-trifluoromethyl-phenyl)-[1,4]diazepan-5-one]"
5,0.58 µM,"CC1C(=O)N(CCCN2CCCCC2)CCN1c1cccc(OC(F)(F)F)c1 (stereo not drawn) [Example 41, 3-Methyl-1-(3-piperidin-1-yl-propyl)-4-(3-trifluoromethoxy-phenyl)-piperazin-2-one]"
6,0.18 µM,"C[C@H]1C(=O)N(CCCN2CCCCC2)CCN1c1cccc(OC(F)(F)F)c1 [Example 42, (S)-3-Methyl-1-(3-piperidin-1-yl-propyl)-4-(3-trifluoromethoxy-phenyl)-piperazin-2-one]"
7,0.02 µM,"CC1C(=O)N(CCCN2CCC3(CC3)[C@H](O)C2)CCN1c1cccc(OC(F)(F)F)c1 (stereo partly drawn) [Example 44, 1-[3-((S)-4-Hydroxy-6-aza-spiro[2.5]oct-6-yl)-propyl]-3-methyl-4-(3-trifluoromethoxy-phenyl)-piperazin-2-one]"
8,0.01 µM,"CC1C(=O)N(C(CO)CCN2CCC3(CC3)[C@H](O)C2)CCN1c1cccc(C(F)(F)F)c1 (stereo partly drawn) [Example 55, 1-[3-((S)-4-Hydroxy-6-aza-spiro[2.5]oct-6-yl)-1-hydroxymethyl-propyl]-3-methyl-4-(3-trifluoromethyl-phenyl)-piperazin-2-one]"
9,0.01 µM,"COCC(CCN1CCC2(CC2)[C@H](O)C1)N1CCN(c2cccc(C(F)(F)F)c2)C(C)C1=O (stereo partly drawn) [Example 56, 1-[3-((S)-4-Hydroxy-6-aza-spiro[2.5]oct-6-yl)-1-methoxymethyl-propyl]-3-methyl-4-(3-trifluoromethyl-phenyl)-piperazin-2-one]"
10,0.33 µM,"CN(C(=O)[C@H](CCN1CCC2(CC2)[C@H](O)C1)N1CCN(c2ccc(Cl)c(Cl)c2)CCC1=O)C1CC1 [Example 62, (S)—N-Cyclopropyl-2-[4-(3,4-dichloro-phenyl)-7-oxo-[1,4]diazepan-1-yl]-4-((S)-4-hydroxy-6-aza-spiro[2.5]oct-6-yl)-N-methyl-butyramide]"

# Continued, compound first:
row,SMILES,IC50
1,"O=C1CCN(c2cccc(OC(F)(F)F)c2)CCN1C(CO)CCCN1CCC2(CC2)[C@H](O)C1 (stereo partly drawn) [Example 32, 4-[(R,S)-4-((S)-4-Hydroxy-6-aza-spiro[2.5]oct-6-yl)-1-hydroxymethyl-butyl]-1-(3-trifluoromethoxy-phenyl)-[1,4]diazepan-5-one]",0.14 µM
2,"O=C1CCN(c2cccc(C(F)(F)F)c2)CCN1CCCN1CCC(O)(c2ccccc2)CC1 [Example 34, 4-[3-(4-Hydroxy-4-phenyl-piperidin-1-yl)-propyl]-1-(3-trifluoromethyl-phenyl)-[1,4]diazepan-5-one]",0.93 µM
3,"C[C@H]1C(=O)N(CCCN2CCC3(CC3)[C@H](O)C2)CCN1c1cccc(OC(F)(F)F)c1 [Example 45, (S)-1-[3-((S)-4-Hydroxy-6-aza-spiro[2.5]oct-6-yl)-propyl]-3-methyl-4-(3-trifluoromethoxy-phenyl)-piperazin-2-one]",0.01 µM
4,"COC(=O)C(CCN1CCC2(CC2)[C@H](O)C1)N1CCN(c2cccc(OC(F)(F)F)c2)C(C)C1=O (stereo partly drawn) [Example 47, 4-((S)-4-Hydroxy-6-aza-spiro[2.5]oct-6-yl)-2-[3-methyl-2-oxo-4-(3-trifluoromethoxy-phenyl)-piperazin-1-yl]-butyric acid methyl ester]",0.01 µM
5,"CC1C(=O)N(C(CCN2CCC3(CC3)[C@H](O)C2)C(=O)O)CCN1c1cccc(OC(F)(F)F)c1 (stereo partly drawn) [Example 48, 4-((S)-4-Hydroxy-6-aza-spiro[2.5]oct-6-yl)-2-[3-methyl-2-oxo-4-(3-trifluoromethoxy-phenyl)-piperazin-1-yl]-butyric acid]",0.03 µM
6,"CC1C(=O)N(C(CO)CCN2CCC3(CC3)[C@H](O)C2)CCN1c1cccc(OC(F)(F)F)c1 (stereo partly drawn) [Example 49, 1-[3-((S)-4-hydroxy-6-aza-spiro[2.5]oct-6-yl)-1-hydroxymethyl-propyl]-3-methyl-4-(3-trifluoromethoxy-phenyl)-piperazin-2-one]",0.005 µM
7,"CC1C(=O)N(C(CCN2CCC3(CC3)[C@H](O)C2)C(=O)N(C)C)CCN1c1cccc(OC(F)(F)F)c1 (stereo partly drawn) [Example 50, 4-((S)-4-Hydroxy-6-aza-spiro[2.5]oct-6-yl)-N,N-dimethyl-2-[3-methyl-2-oxo-4-(3-trifluoromethoxy-phenyl)-piperazin-1-yl]-butyramide]",0.03 µM
8,"CC1C(=O)N(CCCN2CCCCC2)CCN1c1cccc(C(F)(F)F)c1 (stereo not drawn) [Example 51, 3-Methyl-1-(3-piperidin-1-yl-propyl)-4-(3-trifluoromethyl-phenyl)-piperazin-2-one]",0.19 µM
9,"C[C@H]1C(=O)N(CCCN2CCCCC2)CCN1c1cccc(C(F)(F)F)c1 [Example 52, (S)-3-Methyl-1-(3-piperidin-1-yl-propyl)-4-(3-trifluoromethyl-phenyl)-piperazin-2-one]",0.13 µM
10,"COC(=O)C(CCN1CCC2(CC2)[C@H](O)C1)N1CCN(c2cccc(C(F)(F)F)c2)C(C)C1=O (stereo partly drawn) [Example 54, 4-((S)-4-Hydroxy-6-aza-spiro[2.5]oct-6-yl)-2-[3-methyl-2-oxo-4-(3-trifluoromethyl-phenyl)-piperazin-1-yl]-butyric acid methyl ester]",0.01 µM
11,"CC1C(=O)N(CC2CCCN(C)C2)CCN1c1cccc(C(F)(F)F)c1 (stereo not drawn) [Example 58, 3-Methyl-1-(1-methyl-piperidin-3-ylmethyl)-4-(3-trifluoromethyl-phenyl)-piperazin-2-one]",0.68 µM
12,"CN(C)C(=O)[C@H](CCN1CCC2(CC2)[C@H](O)C1)N1CCN(c2ccc(Cl)c(Cl)c2)CCC1=O [Example 59, (S)-2-[4-(3,4-Dichloro-phenyl)-7-oxo-[1,4]diazepan-1-yl]-4-((S)-4-hydroxy-6-aza-spiro[2.5]oct-6-yl)-N,N-dimethyl-butyramide]",0.08 µM
13,"CN(CCO)C(=O)[C@H](CCN1CCC2(CC2)[C@H](O)C1)N1CCN(c2ccc(Cl)c(Cl)c2)CCC1=O [Example 61, (S)-2-[4-(3,4-Dichloro-phenyl)-7-oxo-[1,4]diazepan-1-yl]-4-((S)-4-hydroxy-6-aza-spiro[2.5]oct-6-yl)-N-(2-hydroxy-ethyl)-N-methyl-butyramide]",0.076 µM
14,"NC(=O)[C@H](CCN1CCC2(CC2)[C@H](O)C1)N1CCN(c2ccc(Cl)c(Cl)c2)CCC1=O [Example 64, (S)-2-[4-(3,4-Dichloro-phenyl)-7-oxo-[1,4]diazepan-1-yl]-4-((S)-4-hydroxy-6-aza-spiro[2.5]oct-6-yl)-butyramide]",0.663 µM
